Assay results from paper PMC6968503, “Synthesis and human carbonic anhydrase I, II, VA, and XII inhibition with novel amino acid–sulphonamide conjugates” (Journal of Enzyme Inhibition and Medicinal Chemistry, 2020).
Like-named read-outs stand apart in the source and are kept apart here.

Experiments:
Test in all cases: stopped-flow CO2 hydration
Assay type in all cases: biochemical
hCA VA = biological target: T1, hCA VA (Homo sapiens, UniProt P35218)
T1 construct: gene CA5A
Description: stopped-flow CO2 hydration on hCA VA

hCA II = biological target: T2, hCA II (Homo sapiens, UniProt P00918)
T2 construct: gene CA2
Description: stopped-flow CO2 hydration on hCA II

hCA I = biological target: T3, hCA I (Homo sapiens, UniProt P00915)
T3 construct: gene CA1
Description: stopped-flow CO2 hydration on hCA I

hCA XII = biological target: T4, hCA XII (Homo sapiens, UniProt O43570)
T4 construct: gene CA12
Description: stopped-flow CO2 hydration on hCA XII

T3 sequence (P00915 2-261): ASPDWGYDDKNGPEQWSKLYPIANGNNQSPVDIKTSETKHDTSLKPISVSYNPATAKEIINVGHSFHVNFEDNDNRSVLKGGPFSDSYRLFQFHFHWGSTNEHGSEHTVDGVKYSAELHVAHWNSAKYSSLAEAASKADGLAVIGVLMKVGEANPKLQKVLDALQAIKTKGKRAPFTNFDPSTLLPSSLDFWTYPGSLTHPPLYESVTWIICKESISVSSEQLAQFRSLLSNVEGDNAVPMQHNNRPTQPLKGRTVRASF
T1 sequence (P35218 39-305): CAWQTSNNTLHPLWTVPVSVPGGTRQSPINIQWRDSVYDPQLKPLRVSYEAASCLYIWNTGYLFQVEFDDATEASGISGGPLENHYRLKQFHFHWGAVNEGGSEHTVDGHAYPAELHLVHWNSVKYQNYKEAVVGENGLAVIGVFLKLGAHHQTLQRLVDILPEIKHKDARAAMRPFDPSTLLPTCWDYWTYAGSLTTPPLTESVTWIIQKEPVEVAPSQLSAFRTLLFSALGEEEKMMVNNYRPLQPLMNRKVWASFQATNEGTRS
T4 sequence (O43570 25-354): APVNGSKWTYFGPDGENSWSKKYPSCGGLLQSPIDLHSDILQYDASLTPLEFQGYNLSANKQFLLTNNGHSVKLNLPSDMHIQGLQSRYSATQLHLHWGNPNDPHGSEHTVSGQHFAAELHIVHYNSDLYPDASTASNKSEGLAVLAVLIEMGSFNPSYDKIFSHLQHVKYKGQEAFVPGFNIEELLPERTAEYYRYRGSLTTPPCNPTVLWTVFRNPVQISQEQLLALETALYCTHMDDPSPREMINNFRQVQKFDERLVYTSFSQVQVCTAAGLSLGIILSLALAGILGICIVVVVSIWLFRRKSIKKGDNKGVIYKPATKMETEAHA

Structure (SMILES) | Ki (hCA VA) [nM] | Ki (hCA II) [nM] | Ki (hCA I) [nM] | Ki (hCA XII) [nM] | Ki (hCA VA; CO2 […], […] HEPES pH […] Na2SO4, […] min preincubation, room temperature) [nM]
C[C@@H](NC(=O)OC(C)(C)C)C(=O)NCCc1ccc(S(N)(=O)=O)cc1 [compound 5, tert-Butyl (R)-(1-oxo-1-((4-sulphamoylphenethyl)amino)propan-2-yl)carbamate] | 68.7 | 6.6 | 73.5 | 45.6 | 
NS(=O)(=O)c1ccc(CNC(=O)[C@@H](CSc2ccccc2)NC(=O)OCc2ccccc2)cc1 [compound 16, Benzyl (S)-(1-oxo-3-(phenylthio)-1-((4-sulphamoylbenzyl)amino)propan-2-yl)carbamate] | 3960 | 3.3 | 764 | 37.1 | 
CC(C)[C@@H](NC(=O)OC(C)(C)C)C(=O)NCc1ccc(S(N)(=O)=O)cc1 [compound 22, tert-Butyl (R)-(3-methyl-1-oxo-1-((4-sulphamoylbenzyl)amino)butan-2-yl)carbamate] | 4780 | 168 | 753 | 90.1 | 
NS(=O)(=O)c1ccc(CCNC(=O)[C@@H](CSc2ccccc2)NC(=O)OCc2ccccc2)cc1 [compound 4, Benzyl (S)-(1-oxo-3-(phenylthio)-1-((4-sulphamoylphenethyl)amino)propan-2-yl)carbamate] | 63.3 |  | 352 | 8.4 | 
CC(C)(C)OC(=O)N[C@H](Cc1ccccc1)C(=O)NCc1ccc(S(N)(=O)=O)cc1 [compound 19, tert-Butyl (R)-(1-oxo-3-phenyl-1-((4-sulphamoylbenzyl)amino)propan-2-yl)carbamate] | 734 | 61.4 | 3780 | 6.9 | 
CSCC[C@@H](NC(=O)OC(C)(C)C)C(=O)NCc1ccc(S(N)(=O)=O)cc1 [compound 21, tert-Butyl (R)-(4-(methylthio)-1-oxo-1-((4-sulphamoylbenzyl)amino)butan-2-yl)carbamate] | 4990 | 316 | 5360 | 3.9 | 
CC(C)C[C@@H](NC(=O)OCc1ccccc1)C(=O)NCCc1ccc(S(N)(=O)=O)cc1 [compound 1, Benzyl (R)-(4-methyl-1-oxo-1-((4-sulphamoylphenethyl)amino)pentan-2-yl)carbamate] |  | 8.3 | 49.5 | 27.4 | 58.7
CC(C)[C@@H](NC(=O)OCc1ccccc1)C(=O)NCCc1ccc(S(N)(=O)=O)cc1 [compound 3, Benzyl (R)-(3-methyl-1-oxo-1-((4-sulphamoylphenethyl)amino)butan-2-yl)carbamate] | 60.3 |  | 51.6 | 7.2 | 
NS(=O)(=O)c1ccc(CCNC(=O)[C@@H](Cc2c[nH]c3ccccc23)NC(=O)OCc2ccccc2)cc1 [compound 8, Benzyl (R)-(3-(1H-indol-3-yl)-1-oxo-1-((4-sulphamoylphenethyl)amino)propan-2-yl)carbamate] | 3010 | 6.5 | 528 | 5.5 | 
NS(=O)(=O)c1ccc(CNC(=O)[C@H](Cc2ccccc2)NC(=O)OCC2c3ccccc3-c3ccccc32)cc1 [compound 20, (9H-fluoren-9-yl)methyl (S)-(1-oxo-3-phenyl-1-((4-sulphamoylbenzyl)amino)propan-2-yl)carbamate] | 6830 | 693 | 5170 | 26.7 | 
CSCC[C@@H](NC(=O)OCc1ccccc1)C(=O)NCCc1ccc(S(N)(=O)=O)cc1 [compound 2, Benzyl (R)-(4-(methylthio)-1-oxo-1-((4-sulphamoylphenethyl)amino)butan-2-yl)carbamate] | 63.4 | 1.7 |  | 53.9 | 
CC(C)[C@@H](NC(=O)OCc1ccccc1)C(=O)NCc1ccc(S(N)(=O)=O)cc1 [compound 15, Benzyl (R)-(3-methyl-1-oxo-1-((4-sulphamoylbenzyl)amino)butan-2-yl)carbamate] | 503 | 28.4 | 8.1 | 67.7 | 

Continued, values first:

Ki (hCA VA) [nM] | Ki (hCA II) [nM] | Ki (hCA I) [nM] | Ki (hCA XII) [nM] | Ki (hCA VA; CO2 […], […] HEPES pH […] Na2SO4, […] min preincubation, room temperature) [nM] | Structure (SMILES)
67.9 | 6.4 | 36 | 8.2 |  | NS(=O)(=O)c1ccc(CCNC(=O)CNC(=O)OCC2c3ccccc3-c3ccccc32)cc1 [compound 6, (9H-fluoren-9-yl)methyl (2-oxo-2-((4-sulphamoylphenethyl)amino)ethyl)carbamate]
4580 | 0.8 | 178 | 50.3 |  | CC[C@@H](C)[C@@H](NC(=O)OC(C)(C)C)C(=O)NCc1ccc(S(N)(=O)=O)cc1 [compound 24, tert-Butyl ((2R,3R)-3-methyl-1-oxo-1-((4-sulphamoylbenzyl)amino)pentan-2-yl)carbamate]
5360 | 6.8 | 3890 | 20.6 |  | C[C@@H](NC(=O)OC(C)(C)C)C(=O)NCc1ccc(S(N)(=O)=O)cc1 [compound 18, tert-Butyl (R)-(1-oxo-1-((4-sulphamoylbenzyl)amino)propan-2-yl)carbamate]
401 | 0.9 | 305 | 78.1 |  | NS(=O)(=O)c1ccc(CNC(=O)[C@@H](Cc2c[nH]c3ccccc23)NC(=O)OCc2ccccc2)cc1 [compound 23, Benzyl (R)-(3-(1H-indol-3-yl)-1-oxo-1-((4-sulphamoylbenzyl)amino)propan-2-yl)carbamate]
661 |  | 2990 | 197 |  | CC(C)[C@@H](NC(=O)OC(C)(C)C)C(=O)NCCc1ccc(S(N)(=O)=O)cc1 [compound 10, tert-Butyl (R)-(3-methyl-1-oxo-1-((4-sulphamoylphenethyl)amino)butan-2-yl)carbamate]
3870 |  | 349 | 56.2 |  | CC[C@@H](C)[C@@H](NC(=O)OC(C)(C)C)C(=O)NCCc1ccc(S(N)(=O)=O)cc1 [compound 11, tert-Butyl ((2R,3R)-3-methyl-1-oxo-1-((4-sulphamoylphenethyl)amino)pentan-2-yl)carbamate]
578 | 86.6 | 61.1 | 39.8 |  | CC(C)C[C@@H](NC(=O)OCc1ccccc1)C(=O)NCc1ccc(S(N)(=O)=O)cc1 [compound 13, Benzyl (R)-(4-methyl-1-oxo-1-((4-sulphamoylbenzyl)amino)pentan-2-yl)carbamate]
384 | 8.9 | 9.3 | 74.3 |  | CSCC[C@@H](NC(=O)OCc1ccccc1)C(=O)NCc1ccc(S(N)(=O)=O)cc1 [compound 14, Benzyl (R)-(4-(methylthio)-1-oxo-1-((4-sulphamoylbenzyl)amino)butan-2-yl)carbamate]
3650 | 6.8 | 3340 | 8.8 |  | CC(C)(C)OC(=O)NCC(=O)NCc1ccc(S(N)(=O)=O)cc1 [compound 17, tert-Butyl (2-oxo-2-((4-sulphamoylbenzyl)amino)ethyl)carbamate]
3140 | 215 | 689 | 24.4 |  | NS(=O)(=O)c1ccc(CCNC(=O)C[C@@H](NC(=O)OCc2ccccc2)C(=O)NCCc2ccc(S(N)(=O)=O)cc2)cc1 [compound 12, Benzyl (R)-(1,4-dioxo-1,4-bis((4-sulphamoylphenethyl)amino)butan-2-yl)carbamate]
3440 | 76.4 | 697 | 38.9 |  | NS(=O)(=O)c1ccc(CCNC(=O)[C@H](Cc2ccccc2)NC(=O)OCC2c3ccccc3-c3ccccc32)cc1 [compound 7, (9H-fluoren-9-yl)methyl (S)-(1-oxo-3-phenyl-1-((4-sulphamoylphenethyl)amino)propan-2-yl)carbamate]
611 |  | 4390 | 329 |  | CSCC[C@H](NC(=O)OC(C)(C)C)C(=O)NCCc1ccc(S(N)(=O)=O)cc1 [compound 9, tert-Butyl (S)-(4-(methylthio)-1-oxo-1-((4-sulphamoylphenethyl)amino)butan-2-yl)carbamate]
